# Experimental data as given in publication PMC7069944, “Amino acid levels determine metabolism and CYP450 function of hepatocytes and hepatoma cell lines” (Nature Communications, 2020).
# “And” between values parts separate entries of the source, which are not always exact repeats. Equal entries are not always repeated.
# How the values were obtained:
# HepG2 = assay: Repeated-exposure DILI training compounds, resazurin conversion, HepG2; conditions: listed as Nefadazone; for resazurin conversion (Supplementary Figure 7D): replicates; for % resazurin conversion: repeat exposure
# Method in brief: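 Hepatotoxicity prediction used a miniaturized 384-well differentiation setup, scoring viability through resazurin reduction relative to Cmax.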
# HC3X = assay: Repeated-exposure DILI training compounds, resazurin conversion, HC3X; conditions: for resazurin conversion (Supplementary Figure 7D): HC3X AAGLY D40, replicates
# Method in brief: (§1)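 PSC-derived cells differentiated in 384-well format, plus HepG2 seeded at 40,000 cells/well, received drugs after 8 h of attachment; untreated wells served as negative controls. Viability was measured by resazurin conversion and related to therapeutic Cmax values.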
# HC6X = assay: Repeated-exposure DILI training compounds, resazurin conversion, HC6X; conditions: listed as Nefadazone; for resazurin conversion (Supplementary Figure 7D): replicates; for % resazurin conversion: repeat exposure
# Method in brief: as §1
# HLC = assay: Repeated-exposure DILI training compounds, resazurin conversion, HLC; conditions: listed as Nefadazone; for resazurin conversion (Supplementary Figure 7D): replicates; for % resazurin conversion: repeat exposure
# Method in brief: as §1
smiles,measurement,setting,value
CCc1nn(CCCN2CCN(c3cccc(Cl)c3)CC2)c(=O)n1CCOc1ccccc1 [nefazodone],resazurin conversion (Supplementary Figure 7D),"HepG2; HepG2 AAGLY D30, 3 uM",105.9 and 126.8 and 102.6 and 103 and 93.1 and 96.9
same,resazurin conversion (Supplementary Figure 7D),"HepG2; HepG2 AAGLY D30, 5 uM",129.6 and 134.9 and 121.5 and 111.6 and 104 and 111.7
same,resazurin conversion (Supplementary Figure 7D),"HepG2; HepG2 AAGLY D30, 10 uM",105.3 and 123.3 and 96.5 and 99.1 and 96.1 and 97.4
same,resazurin conversion (Supplementary Figure 7D),"HepG2; HepG2 AAGLY D30, 30 uM",36 and 76.7 and 84.8 and 78.3 and 78 and 67.3
same,resazurin conversion (Supplementary Figure 7D),"HepG2; HepG2 AAGLY D30, 50 uM",9 and 9.3 and 8 (2×) and 8.1 and 7.7
same,resazurin conversion (Supplementary Figure 7D),"HepG2; HepG2 AAGLY D30, 100 uM",9.2 and 9.7 and 8.4 (2×) and 7.9 and 8.1
same,resazurin conversion (Supplementary Figure 7D),"HepG2; HepG2 AAGLY D30, 300 uM",11.5 and 11.8 and 10.1 (2×) and 10.3 and 9.9
same,resazurin conversion (Supplementary Figure 7D),"HepG2; HepG2 AAGLY D30, 600 uM",11.8 and 11.6 and 10.3 and 10.8 and 10.2 and 10.1
same,resazurin conversion (Supplementary Figure 7D),"HepG2; HepG2 CTL D7, 3 uM",81.4 and 72 and 103.7 and 72.2 and 87 and 94.4
same,resazurin conversion (Supplementary Figure 7D),"HepG2; HepG2 CTL D7, 5 uM",84.8 and 64.7 and 80.3 and 68.3 and 74.8 and 74.1
same,resazurin conversion (Supplementary Figure 7D),"HepG2; HepG2 CTL D7, 10 uM",81.6 and 63.4 and 87.3 and 63.9 and 78.5 and 72.9
same,resazurin conversion (Supplementary Figure 7D),"HepG2; HepG2 CTL D7, 30 uM",60.5 and 51.3 and 64.3 and 51.4 and 61.6 and 55.4
same,resazurin conversion (Supplementary Figure 7D),"HepG2; HepG2 CTL D7, 50 uM",35.6 and 31 and 32.6 and 33.9 and 34.6 and 33.7
same,resazurin conversion (Supplementary Figure 7D),"HepG2; HepG2 CTL D7, 100 uM",30.9 and 30.6 and 31.4 and 30 and 30.5 and 29.7
same,resazurin conversion (Supplementary Figure 7D),"HepG2; HepG2 CTL D7, 300 uM",36.6 and 35.8 and 37 and 36.1 and 37.2 and 36
same,resazurin conversion (Supplementary Figure 7D),"HepG2; HepG2 CTL D7, 600 uM",37.5 (2×) and 36.2 and 38.4 and 36.6 and 34.9
same,% resazurin conversion,"HepG2; HepG2 AAGLY D30, 1200 uM",11% and 9.3% and 9.9% and 9.1%
same,% resazurin conversion,"HepG2; HepG2 CTL D7, 1200 uM",34.4% and 33.1% and 36.4% and 33% and 34.9% and 32.3%
same,resazurin conversion (Supplementary Figure 7D),"HC3X; 3 uM, listed as Nefadazone",123.3 and 103.5 and 107.9 and 73 and 98.7 and 69.4
same,resazurin conversion (Supplementary Figure 7D),"HC3X; 5 uM, listed as Nefadazone",105.3 and 82.4 and 66.4 and 71.1 and 119.1 and 75.8
same,resazurin conversion (Supplementary Figure 7D),"HC3X; 10 uM, listed as Nefadazone",99 and 147.2 and 96.3 and 91.8 and 116 and 76.9
same,resazurin conversion (Supplementary Figure 7D),"HC3X; 30 uM, listed as Nefadazone",10.5 and 10.9 and 12.1 and 10 and 9.5 and 10.1
same,resazurin conversion (Supplementary Figure 7D),"HC3X; 50 uM, listed as Nefadazone",10 and 9.9 and 9.3 (2×) and 9.2 and 9.8
same,resazurin conversion (Supplementary Figure 7D),"HC3X; 100 uM, listed as Nefadazone",10.6 and 10.4 and 9.7 and 9.8 and 9.4 and 9.6
same,resazurin conversion (Supplementary Figure 7D),"HC3X; 300 uM, listed as Nefadazone",11.9 and 11.5 and 10.9 and 11.2 and 10.5 and 10.7
same,resazurin conversion (Supplementary Figure 7D),"HC3X; 600 uM, listed as Nefadazone",12 and 12.2 and 11.3 and 11.6 and 11.1 and 10.9
same,IC50/Cmax,HC3X; human,12.43
same,% resazurin conversion,"HC3X; repeat exposure, HC3X AAGLY D40, 1200 uM, listed as Nefadazone",12.8% and 12.4% and 11.8% and 12.1% and 11.5% and 12.2%
same,resazurin conversion (Supplementary Figure 7D),"HC6X; HC6X AAGLY D40, 3 uM",86.5 and 67.1 and 73.3 and 119.9 and 72.8 and 62.6
same,resazurin conversion (Supplementary Figure 7D),"HC6X; HC6X AAGLY D40, 5 uM",140.1 and 114.8 and 61.7 and 68.6 and 76.5 and 54.7
same,resazurin conversion (Supplementary Figure 7D),"HC6X; HC6X AAGLY D40, 10 uM",51.6 and 55.1 and 57.3 and 43.6 and 49.8 and 39.8
same,resazurin conversion (Supplementary Figure 7D),"HC6X; HC6X AAGLY D40, 30 uM",34.6 and 33.4 and 31.3 and 32.6 and 37.8 and 31.2
same,resazurin conversion (Supplementary Figure 7D),"HC6X; HC6X AAGLY D40, 50 uM",34.2 and 34.7 and 32 and 32.2 and 31.8 and 32.4
same,resazurin conversion (Supplementary Figure 7D),"HC6X; HC6X AAGLY D40, 100 uM",37.1 and 36.6 and 34.3 and 34.6 and 33.8 and 34.2
same,resazurin conversion (Supplementary Figure 7D),"HC6X; HC6X AAGLY D40, 300 uM",40.6 and 41.1 and 39.2 and 40 and 39.1 and 37.4
same,resazurin conversion (Supplementary Figure 7D),"HC6X; HC6X AAGLY D40, 600 uM",39.7 and 40.4 and 38.5 and 38.6 and 37.6 and 37.9
same,resazurin conversion (Supplementary Figure 7D),"HC6X; HC6X AAGLY D40 Remove dox, 3 uM",183.4 and 100.9 and 109.5 and 115 and 122 and 109.2
same,resazurin conversion (Supplementary Figure 7D),"HC6X; HC6X AAGLY D40 Remove dox, 5 uM",251 and 184.4 and 147 and 113 and 98.3 and 98.4
same,resazurin conversion (Supplementary Figure 7D),"HC6X; HC6X AAGLY D40 Remove dox, 10 uM",257.2 and 78.2 and 239.1 and 205.6 and 148.8 and 110.7
same,resazurin conversion (Supplementary Figure 7D),"HC6X; HC6X AAGLY D40 Remove dox, 30 uM",87 and 111.9 and 134.6 and 112.2 and 58.4 and 83.6
same,resazurin conversion (Supplementary Figure 7D),"HC6X; HC6X AAGLY D40 Remove dox, 50 uM",39.8 and 27.8 and 36.9 and 29.8 and 32 and 29.6
same,resazurin conversion (Supplementary Figure 7D),"HC6X; HC6X AAGLY D40 Remove dox, 100 uM",29.7 (2×) and 28.9 and 29.4 and 29.6 and 29.1
same,resazurin conversion (Supplementary Figure 7D),"HC6X; HC6X AAGLY D40 Remove dox, 300 uM",34.3 and 32.8 and 33.8 and 34 and 34.1 and 34.5
same,resazurin conversion (Supplementary Figure 7D),"HC6X; HC6X AAGLY D40 Remove dox, 600 uM",36.7 (2×) and 35.4 and 36 and 36.5 and 36.3
same,% resazurin conversion,"HC6X; HC6X AAGLY D40, 1200 uM",40.4% and 40.1% and 39.1% and 39.2% and 37.6% and 37.4%
same,% resazurin conversion,"HC6X; HC6X AAGLY D40 Remove dox, 1200 uM",38.2% and 35.3% and 36.9% and 37.7% and 37% and 35.8%
same,resazurin conversion (Supplementary Figure 7D),"HLC; HLC AAGLY D40, 3 uM",81 and 139.4 and 131.8 and 81.1 and 194.1 and 102.8
same,resazurin conversion (Supplementary Figure 7D),"HLC; HLC AAGLY D40, 5 uM",158.2 and 102.6 and 130.1 and 239.6 and 167 and 46.2
same,resazurin conversion (Supplementary Figure 7D),"HLC; HLC AAGLY D40, 10 uM",117.1 and 195.1 and 92.8 and 87 and 6 and 258.8
same,resazurin conversion (Supplementary Figure 7D),"HLC; HLC AAGLY D40, 30 uM",52.4 and 182.9 and 124.1 and 55.1 and 48.3 and 27
same,resazurin conversion (Supplementary Figure 7D),"HLC; HLC AAGLY D40, 50 uM",46.9 and 25.2 and 26.1 and 23.4 and 30.1 and 22.3
same,resazurin conversion (Supplementary Figure 7D),"HLC; HLC AAGLY D40, 100 uM",22.1 and 23 and 22.5 and 22.9 and 24.2 and 22.8
same,resazurin conversion (Supplementary Figure 7D),"HLC; HLC AAGLY D40, 300 uM",25.4 and 26.9 (2×) and 25.9 and 25.8 and 27.1
same,resazurin conversion (Supplementary Figure 7D),"HLC; HLC AAGLY D40, 600 uM",27.4 and 30.3 and 28.5 and 29.2 and 27.1 and 28.7
same,resazurin conversion (Supplementary Figure 7D),"HLC; HLC LDM D40, 3 uM",101.3 and 106.4 and 83.1 and 128.8 and 110.4 and 128.2
same,resazurin conversion (Supplementary Figure 7D),"HLC; HLC LDM D40, 5 uM",103.9 and 126.1 and 116.3 and 112.6 and 76.1 and 103.3
same,resazurin conversion (Supplementary Figure 7D),"HLC; HLC LDM D40, 10 uM",114.4 and 115.2 and 124.5 and 104.3 and 103.8 and 111.5
same,resazurin conversion (Supplementary Figure 7D),"HLC; HLC LDM D40, 30 uM",92.8 and 75.4 and 51.3 and 90.2 and 120.8 and 118.9
same,resazurin conversion (Supplementary Figure 7D),"HLC; HLC LDM D40, 50 uM",12.7 and 17.8 and 12.3 and 20.8 and 25.8 and 69.6
same,resazurin conversion (Supplementary Figure 7D),"HLC; HLC LDM D40, 100 uM",11 and 11.6 and 11.2 and 11.3 and 10.7 and 11.5
same,resazurin conversion (Supplementary Figure 7D),"HLC; HLC LDM D40, 300 uM",13.5 and 13.3 and 13.6 and 12.4 and 12.2 (2×)
same,resazurin conversion (Supplementary Figure 7D),"HLC; HLC LDM D40, 600 uM",13.7 (2×) and 13.1 and 13.4 and 13.5 and 13.2
same,% resazurin conversion,"HLC; HLC AAGLY D40, 1200 uM",28.9% and 30.9% and 30.5% and 32.9% and 28% and 30.1%
same,% resazurin conversion,"HLC; HLC LDM D40, 1200 uM",14.7% and 15.3% and 13.9% and 14.1% and 13.7% and 12%
